Where two headings read alike, the source gives them in different places. Some results are limits rather than exact numbers.

Data set [1] has as its system S. pyogenes A561. In kind it is cell-based. To be noted: incubation time 24 h. From the text: (§1) Tables 4 to 6 show the in-vitro antibacterial activity (MIC values[μg/ml]) of the actagardine (Acta) and of the compounds according to the invention.
The test system of data set [2] is E. Coli. In kind it is cell-based. To be noted: incubation time 24 h.
Source text: as §1

For data set [3], the system named is S. aureus Exp54146. In kind it is cell-based. To be noted: incubation time 24 h.
Source text: as §1

Data set [4] relates to S. aureus SG511. In kind it is cell-based. To be noted: incubation time 24 h.
Source text: as §1

The subject of data set [5] is S. pneumoniae 030BI2. Put plainly: in-vitro antibacterial activity (MIC), incubation time 18 h. In kind it is cell-based. To be noted: incubation time 18 h.
Source text: as §1

The test system of data set [6] is S. milleri 02milGR12. The description is as above. In kind it is cell-based. To be noted: incubation time 18 h.
Source text: as §1

Data set [7] relates to S. pyogenes O2A1SJ1. Described as above. In kind it is cell-based. To be noted: incubation time 18 h.
Source text: as §1

Data set [8] relates to S. aureus 011HT3. The data set is described as above. In kind it is cell-based. To be noted: incubation time 18 h.
Source text: as §1

Data set [9] has as its system S. pyogenes 02A1UC1. The description is as above. In kind it is cell-based. To be noted: incubation time 18 h.
Source text: as §1

Data set [10] concerns S. aureus 011DU5. The data set is described as above. In kind it is cell-based. To be noted: incubation time 18 h.
Source text: as §1

In data set [11] the test system is E. faecalis 02D2DU18. The data set is described as above. In kind it is cell-based. To be noted: incubation time 18 h.
Source text: as §1

In data set [12] the test system is S. epidermidis 012GO20. The data set is described as above. In kind it is cell-based. To be noted: incubation time 18 h.
Source text: as §1

The test system of data set [13] is S. pyogenes 02A1FI6. The data set is described as above. In kind it is cell-based. To be noted: incubation time 18 h.
Source text: as §1

Data set [14] concerns S. aureus 011HT1. The data set is described as above. In kind it is cell-based. To be noted: incubation time 18 h.
Source text: as §1

For data set [15], the system named is E. faecalis 02D2HT10. Described as above. To be noted: incubation time 18 h. In kind it is cell-based.
Source text: as §1

Data set [16] concerns S. aureus 011HT18. The data set is described as above. In kind it is cell-based. To be noted: incubation time 18 h.
Source text: as §1

Data set [17] has as its system S. aureus 0121O64. The data set is described as above. In kind it is cell-based. To be noted: incubation time 18 h.
Source text: as §1

In data set [18] the test system is S. mitis 02mitGR16. The data set is described as above. In kind it is cell-based. To be noted: incubation time 18 h.
Source text: as §1

Data set [19] concerns S. epidermidis 012GO42. Described as above. In kind it is cell-based. To be noted: incubation time 18 h.
Source text: as §1

Data set [20] has as its system E. faecalis 02D2UC5. The description is as above. In kind it is cell-based. To be noted: incubation time 18 h.
Source text: as §1

The subject of data set [21] is E. faecalis 02D2HM9. The description is as above. In kind it is cell-based. To be noted: incubation time 18 h.
Source text: as §1

Data set [22] relates to Staph. coag. negative 012HT5. The description is as above. In kind it is cell-based. To be noted: incubation time 18 h.
Source text: as §1

For data set [23], the system named is Strepto gr. G 02G0CB2. The description is as above. In kind it is cell-based. To be noted: incubation time 18 h.
Source text: as §1

A short description of data set [24]: Solubility. In kind it is physicochemical. To be noted: in methanol and water.
Data set [25] can be described thus: Stability in solution. In kind it is physicochemical.
Data set [26] can be described thus: Tolerability / toxicity.

As for “di-Boc-Lys(0)-actagardine [Boc--Lys--Acta]”, the MIC values result was “<= 0.04 μg/ml” in data set [1]; more than 40 µg/mL in data set [2]; 10 µg/mL in data set [3]; 10 µg/mL in data set [4] (S. aureus SG511 + 10% serum); 2.5 µg/mL in data set [4] (S. aureus SG511); 1.2 µg/mL in [5]. The MIC values in data set [6] is 5 µg/mL; in data set [7], 0.08 µg/mL; in data set [8] (S. aureus 011HT3 + 10% serum) it was 20 µg/mL; in [8] (S. aureus 011HT3 + 50% serum), 40 µg/mL; in data set [8] (S. aureus 011HT3), 10 µg/mL; in data set [9], “<= 0.04 μg/ml”. In addition, the MIC values in data set [10] is 40 µg/mL; in data set [11], 10 µg/mL; in [12] it was more than 40 µg/mL; in data set [13], “<= 0.04 μg/ml”; in data set [14], 10 µg/mL; in data set [15], more than 40 µg/mL. In addition, the MIC values in data set [16] is more than 40 µg/mL; in data set [17] it was more than 40 µg/mL; in data set [18], 5 µg/mL; in data set [19], more than 40 µg/mL; in data set [20], 40 µg/mL; in data set [21] it was more than 40 µg/mL. For the same compound, the MIC values was more than 40 µg/mL in data set [22] and 2.5 µg/mL in data set [23].

Consider `CC[C@H](C)[C@@H]1NC(=O)C2NC(=O)[C@H](CC(C)C)NC(=O)C(NC(=O)C3CSCC(NC(=O)[C@H](C)N)C(=O)N[C@@H](CO)C(=O)NCC(=O)N[C@@H](Cc4c[nH]c5ccccc45)C(=O)N[C@@H](C(C)C)C(=O)N3)C(C)SCC(NC(=O)[C@H](CCC(=O)O)NC1=O)C(=O)NCC(=O)NC1C(=O)N[C@@H](C(C)C)C(=O)N[C@@H]([C@@H](C)CC)C(=O)NC(CSC2C)C(=O)N[C@@H](C)C(=O)NC(C(=O)O)C[S+]([O-])C1C` (stereo partly shown) [Ala(0)-actagardine], for which, in [24], the solubility entry was “soluble”. The stability result in [25] (in neutral and mildly alkaline medium) is on record as “Stable”; in data set [25] (in strongly acidic and strongly alkaline solution), “unstable”. The “cytotoxic actions or other toxicities” value in [26] is recorded as “not observed”. Moreover, the tolerability entry in data set [26] (at the active concentration and above) is “good”.

Values taken from patent publication US6022851A, “Lantibiotic related to actagardine, and processes for the preparation and use thereof” (priority 1997, dated 2000).
